Measured values taken from ChEMBL document CHEMBL1153194, “Discovery of halo-nitrobenzamides with potential application against human African trypanosomiasis” (Bioorg Med Chem Lett, 2010).
pIC50: −log10 of the molar value.

Assays:
[1] = Solubility of the compound; assay type: physicochemical
[2] = tested on: HepG2; test: Cytotoxicity against human HepG2 cells after 72 hrs; assay type: cell-based; conditions: HepG2, 72 h
[3] = tested on: Plasmodium falciparum; test: Antiplasmodial activity against Plasmodium falciparum 3D7 infected in human O+ erythrocytes after 72 hrs by GNA satin based assay; assay type: functional, organism-based; conditions: 3D7, 72 h
[4] = tested on: Trypanosoma brucei brucei; test: Antitrypanosomal activity against Trypanosoma brucei brucei after 48 hrs by luminescence assay; assay type: functional, organism-based

Structure (SMILES): CCCCCCc1ccc(NC(=O)c2ccc(F)c([N+](=O)[O-])c2)cc1
- solubility [1]: < 0.1 µM
- pIC50 [2]: 4.99
- pIC50 [3]: < 4.82
- pIC50 [4]: 4.62

Structure (SMILES): CCCCCCc1ccc(NC(=O)c2ccc([N+](=O)[O-])cc2Cl)cc1
- solubility [1]: < 0.1 µM
- pIC50 [2]: < 4.30
- pIC50 [3]: < 4.82
- pIC50 [4]: 4.72

Structure (SMILES): COc1ccc(N2CCN(C(=O)c3cc([N+](=O)[O-])ccc3Cl)CC2)cc1
- pIC50 [2]: < 4.30
- pIC50 [3]: < 4.82
- pIC50 [4]: 4.61

Structure (SMILES): CCCCCCc1ccc(NC(=O)c2cccc([N+](=O)[O-])c2Cl)cc1
- solubility [1]: < 0.1 µM
- pIC50 [2]: < 4.30
- pIC50 [3]: < 4.82
- pIC50 [4]: < 4.30

Structure (SMILES): CCCCCCc1ccc(C(=O)Nc2cc([N+](=O)[O-])ccc2Cl)cc1
- solubility [1]: < 0.1 µM
- pIC50 [2]: < 4.30
- pIC50 [3]: < 4.82
- pIC50 [4]: < 4.30

Structure (SMILES): CCCCCCc1ccc(C(=O)Nc2ccc(Cl)c([N+](=O)[O-])c2)cc1
- solubility [1]: < 0.1 µM
- pIC50 [2]: < 4.30
- pIC50 [3]: < 4.82
- pIC50 [4]: 5.22

Structure (SMILES): COc1ccc(NC(=O)c2cc([N+](=O)[O-])ccc2Cl)cc1
- pIC50 [2]: < 4.30
- pIC50 [3]: < 4.82
- pIC50 [4]: 4.72

Structure (SMILES): O=C(Nc1ccc(Cl)cc1)c1cc([N+](=O)[O-])ccc1Cl
- pIC50 [2]: < 4.30
- pIC50 [3]: < 4.82
- pIC50 [4]: 5.82

Structure (SMILES): O=C(NCC1CCCCC1)c1cc([N+](=O)[O-])ccc1Cl
- pIC50 [2]: < 4.30
- pIC50 [3]: < 4.82
- pIC50 [4]: 4.57

Structure (SMILES): CCCCCCc1ccc(NC(=O)c2cc([N+](=O)[O-])ccc2Cl)cc1
- solubility [1]: < 0.1 µM
- pIC50 [2]: < 4.30
- pIC50 [3]: < 4.82
- pIC50 [4]: 6.00

Structure (SMILES): CCCCCCc1ccc(NC(=O)c2ccc(Cl)cc2[N+](=O)[O-])cc1
- solubility [1]: < 0.1 µM
- pIC50 [2]: < 4.30
- pIC50 [3]: < 4.82
- pIC50 [4]: 4.68

Structure (SMILES): CCCCCCc1ccc(C(=O)Oc2ccc(Cl)c([N+](=O)[O-])c2)cc1
- solubility [1]: < 0.1 µM
- pIC50 [2]: < 4.30
- pIC50 [3]: < 4.82
- pIC50 [4]: 4.62

Structure (SMILES): O=C(NCc1ccccc1)c1cc([N+](=O)[O-])ccc1Cl
- pIC50 [2]: < 4.30
- pIC50 [3]: < 4.82
- pIC50 [4]: < 4.30

Structure (SMILES): CCCCCCc1ccc(NC(=O)c2ccc(Cl)c([N+](=O)[O-])c2)cc1
- solubility [1]: < 0.1 µM
- pIC50 [2]: < 4.30
- pIC50 [3]: < 4.82
- pIC50 [4]: 4.92

Structure (SMILES): CCCCCCc1ccc(NC(=O)c2c(Cl)cccc2[N+](=O)[O-])cc1
- solubility [1]: < 0.1 µM
- pIC50 [2]: < 4.30
- pIC50 [3]: < 4.82
- pIC50 [4]: 4.53

Structure (SMILES): Cc1ccc(NC(=O)c2cc([N+](=O)[O-])ccc2Cl)cc1
- pIC50 [2]: < 4.30
- pIC50 [3]: < 4.82
- pIC50 [4]: 5.11

Structure (SMILES): CCCCCCc1ccc(NC(=O)c2cc([N+](=O)[O-])ccc2F)cc1
- solubility [1]: < 0.1 µM
- pIC50 [2]: 5.60
- pIC50 [3]: 5.14
- pIC50 [4]: 5.82
